Molecules are shown by their SMILES. Some results are limits rather than exact numbers.

One experiment concerns Chorioallantoic membrane. Briefly: Anti-angiogenesis activity in chicken embryo chorioallantonic membrane measured after 2 hrs by CAM assay. Type of experiment: functional. As to conditions: Gallus gallus.
In a further experiment the target is T1, Estrogen receptor (Homo sapiens, UniProt P03372).
T1 sequence (P03372 whole entry): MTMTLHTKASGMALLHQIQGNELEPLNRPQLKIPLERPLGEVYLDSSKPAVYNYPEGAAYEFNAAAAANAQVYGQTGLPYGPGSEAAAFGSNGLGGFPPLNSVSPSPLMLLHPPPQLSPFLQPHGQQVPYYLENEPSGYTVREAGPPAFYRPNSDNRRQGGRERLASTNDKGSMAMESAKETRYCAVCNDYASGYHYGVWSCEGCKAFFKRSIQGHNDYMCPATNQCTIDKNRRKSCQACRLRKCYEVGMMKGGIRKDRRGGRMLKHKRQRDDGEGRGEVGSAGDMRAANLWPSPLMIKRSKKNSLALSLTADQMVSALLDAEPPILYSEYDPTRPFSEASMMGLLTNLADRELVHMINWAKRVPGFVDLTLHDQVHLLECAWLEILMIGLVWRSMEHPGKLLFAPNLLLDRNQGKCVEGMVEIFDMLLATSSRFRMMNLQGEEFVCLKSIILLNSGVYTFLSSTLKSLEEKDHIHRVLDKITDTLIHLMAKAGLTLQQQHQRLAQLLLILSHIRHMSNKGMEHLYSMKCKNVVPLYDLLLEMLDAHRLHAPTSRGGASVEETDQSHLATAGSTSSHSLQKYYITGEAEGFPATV
Briefly: Binding affinity to human recombinant ERalpha by competitive fluorometric binding assay.

The target of the next experiment is Estrogen receptor beta (Homo sapiens, UniProt Q92731).
The next experiment has as its system MCF7. Briefly: cells. The settings on record: Homo sapiens, MCF7, 24 h.
A further experiment concerns MDA-MB-231. Briefly: cells. The settings on record: Homo sapiens, MDA-MB-231, 24 h.
Another experiment relates to HEK293. Briefly: Cytotoxicity against human HEK293 cells assessed as cell viability after 24 hrs by MTT assay. As to conditions: HEK293, 24 h. Type of experiment: functional, cell-based. (Tetrazolium dyes change colour on reduction, which living cells bring about.)
Experiment [1] can be described thus: Selectivity index, ratio of IC50 for human recombinant ERbeta to human recombinant ERalpha.

Sequence of Estrogen receptor beta (Q92731 whole entry): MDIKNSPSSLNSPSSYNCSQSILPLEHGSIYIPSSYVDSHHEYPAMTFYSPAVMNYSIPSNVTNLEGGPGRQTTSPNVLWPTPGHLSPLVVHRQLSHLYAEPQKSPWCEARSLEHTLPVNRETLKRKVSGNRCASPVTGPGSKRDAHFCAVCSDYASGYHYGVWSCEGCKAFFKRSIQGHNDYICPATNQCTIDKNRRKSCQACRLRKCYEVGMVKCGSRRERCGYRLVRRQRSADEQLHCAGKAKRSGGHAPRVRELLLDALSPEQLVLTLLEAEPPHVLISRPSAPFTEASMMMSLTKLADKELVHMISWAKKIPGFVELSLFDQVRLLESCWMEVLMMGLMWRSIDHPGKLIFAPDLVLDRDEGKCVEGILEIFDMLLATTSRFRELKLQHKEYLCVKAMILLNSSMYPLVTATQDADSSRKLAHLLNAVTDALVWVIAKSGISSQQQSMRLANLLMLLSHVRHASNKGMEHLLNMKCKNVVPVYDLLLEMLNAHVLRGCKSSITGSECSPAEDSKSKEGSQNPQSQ
Description for Estrogen receptor beta: Binding affinity to human recombinant ERbeta by competitive fluorometric binding assay
Description for MCF7: Antiproliferative activity against human MCF7 cells assessed as cell viability after 24 hrs by MTT assay
Description for MDA-MB-231: Antiproliferative activity against human MDA-MB-231 cells assessed as cell viability after 24 hrs by MTT assay

As usually defined, the IC50 is the midpoint of a concentration-inhibition curve. `CN(Cc1cnc2nc(N)nc(N)c2n1)c1ccc(C(=O)N[C@@H](CCC(=O)O)C(=O)O)cc1` [METHOTREXATE] yielded an IC50 in the experiment with Chorioallantoic membrane of 3.65 µM.

For the molecule `CN1C(=O)N(CC(F)(F)F)C(c2ccc(OCCN3CCN(CC(F)(F)F)CC3)cc2)C2=C1c1ccccc1C2=O` (stereo not given), the IC50 at Estrogen receptor was 0.93 µM; in the experiment on Chorioallantoic membrane, 6.94 µM; against Estrogen receptor beta, over 10 µM; with MCF7 it was 5.17 µM; in the experiment on MDA-MB-231 it was over 50 µM.

Turning to `CN1CCN(CCOc2ccc(C3C4=C(c5ccccc5C4=O)N(C)C(=O)N3CC(F)(F)F)cc2)CC1` (stereo not given), the half-maximal inhibitory concentration (IC50) on Estrogen receptor was 3.01 µM; against Estrogen receptor beta, over 10 µM; in the experiment with MCF7, 16.1 µM; in the experiment with MDA-MB-231, 28.4 µM.

Regarding `CN1C(=O)N(N(C)CCC(Oc2ccc(C(F)(F)F)cc2)c2ccccc2)C(c2ccc(C(F)(F)F)cc2)C2=C1c1ccccc1C2=O` (stereo not given), the IC50 on Estrogen receptor was 1.33 µM; at Estrogen receptor beta, over 10 µM; in the experiment with MCF7, 6.98 µM; in the experiment on MDA-MB-231, over 50 µM.

In the case of `CN(C)CCOc1ccc(C2NC(=O)N(C)C3=C2C(=O)c2ccccc23)cc1` (stereo not given), the IC50 at Estrogen receptor was 3.17 µM; on Estrogen receptor beta, over 10 µM; in the experiment on MCF7, 11.3 µM; in the experiment on MDA-MB-231, 21.1 µM.

With `CN1C(=O)NC(c2ccc(O)cc2)C2=C1c1ccccc1C2=O` (stereo not given), the IC50 on Estrogen receptor is 36.1 µM; at Estrogen receptor beta, over 10 µM.

As for `CN1C(=O)N(CCN(CCO)CCO)C(c2ccc(C(F)(F)F)cc2)C2=C1c1ccccc1C2=O` (stereo not given), the IC50 is 0.004 µM on Estrogen receptor; 0.86 µM in the experiment on Chorioallantoic membrane; 0.31 µM against Estrogen receptor beta; 0.081 µM in the experiment on MCF7; over 50 µM in the experiment on MDA-MB-231; over 50 µM in the experiment on HEK293.

On to `CN1CCN(CCN2C(=O)N(C)C3=C(C(=O)c4ccccc43)C2c2ccc(C(F)(F)F)cc2)CC1` (stereo not given), for which the IC50 at Estrogen receptor was 0.072 µM; at Estrogen receptor beta, over 10 µM; with MCF7, 1.48 µM; in the experiment on MDA-MB-231, over 50 µM; with HEK293, 38.5 µM.

Take `CN1C(=O)NC(c2ccc(OCCN3CCN(CC(F)(F)F)CC3)cc2)C2=C1c1ccccc1C2=O` (stereo not given): the IC50 at Estrogen receptor was 1.29 µM; against Estrogen receptor beta, over 10 µM; in the experiment with MCF7, 6.25 µM; in the experiment with MDA-MB-231, over 50 µM.

For `CN1C(=O)NC(c2ccc(OCCN3CCNCC3)cc2)C2=C1c1ccccc1C2=O` (stereo not given), the IC50 was 0.44 µM on Estrogen receptor; 6.7 µM with Chorioallantoic membrane; over 10 µM at Estrogen receptor beta; 1.02 µM with MCF7; over 50 µM in the experiment with MDA-MB-231; 37.5 µM with HEK293.

Turning to `CN(CCOc1ccc(C2NC(=O)N(C)C3=C2C(=O)c2ccccc23)cc1)CCC(Oc1ccc(C(F)(F)F)cc1)c1ccccc1` (stereo not given), the IC50 on Estrogen receptor is 0.81 µM; against Estrogen receptor beta it was over 10 µM; in the experiment on MCF7, 11.2 µM; in the experiment with MDA-MB-231 it was over 50 µM.

For the molecule `CN(C)CCN1C(=O)N(C)C2=C(C(=O)c3ccccc32)C1c1ccc(C(F)(F)F)cc1` (stereo not given), the IC50 at Estrogen receptor was 2.09 µM; against Estrogen receptor beta, over 10 µM; in the experiment on MCF7 it was 13.2 µM; in the experiment with MDA-MB-231, over 50 µM.

For the molecule `CN(C)CCOc1ccc(C2C3=C(c4ccccc4C3=O)N(C)C(=O)N2CC(F)(F)F)cc1` (stereo not given), the IC50 at Estrogen receptor is 7.55 µM; against Estrogen receptor beta, over 10 µM; in the experiment on MCF7, 14.3 µM; in the experiment on MDA-MB-231, 31.6 µM.

With `CC/C(=C(\c1ccccc1)c1ccc(OCCN(C)C)cc1)c1ccccc1` [TAMOXIFEN], in experiment [1], the Ratio IC50 was determined as 0.054. Besides, the IC50 with MCF7 is 8.53 µM; with MDA-MB-231, 14.9 µM; with HEK293, 26.3 µM.

On to `CN1C(=O)NC(c2ccc(C(F)(F)F)cc2)C2=C1c1ccccc1C2=O` (stereo not given), for which the IC50 at Estrogen receptor is 29.6 µM; on Estrogen receptor beta it was over 10 µM.

`CN1CCN(CCOc2ccc(C3NC(=O)N(C)C4=C3C(=O)c3ccccc34)cc2)CC1` (stereo not given): the IC50 is 0.49 µM at Estrogen receptor, over 10 µM against Estrogen receptor beta, 14.4 µM with MCF7 and over 50 µM in the experiment on MDA-MB-231.

For the molecule `CN1C(=O)NC(c2ccc(OCCN(CCO)CCO)cc2)C2=C1c1ccccc1C2=O` (stereo not given), the half-maximal inhibitory concentration (IC50) on Estrogen receptor was 0.0071 µM; in the experiment on Chorioallantoic membrane, 3.52 µM; on Estrogen receptor beta it was 0.53 µM; in the experiment with MCF7, 0.07 µM; in the experiment with MDA-MB-231 it was over 50 µM; with HEK293 it was over 50 µM.

On to `CN1C(=O)N(CCN2CCNCC2)C(c2ccc(C(F)(F)F)cc2)C2=C1c1ccccc1C2=O` (stereo not given), for which the IC50 was 0.021 µM at Estrogen receptor; 19.1 µM in the experiment on Chorioallantoic membrane; over 10 µM against Estrogen receptor beta; 0.89 µM with MCF7; over 50 µM in the experiment with MDA-MB-231; 44.3 µM in the experiment with HEK293.

The values above are taken from ChEMBL document CHEMBL5120785, “Rational design, synthesis, antiproliferative activity against MCF-7, MDA-MB-231 cells, estrogen receptors binding affinity, and computational study of indenopyrimidine-2,5-dione analogs for the treatment of breast cancer” (Bioorg Med Chem Lett, 2022).
